Test results published in ChEMBL document CHEMBL1124980, “2,4-Dihydro-3H-1,2,4-triazol-3-ones as anticonvulsant agents” (J Med Chem, 1990).
The source made the active and inactive calls. No cut-off for these calls is given here.

Columns and labels:
[1] = target: GABA-A receptor; anion channel; assay: In vitro binding affinity for GABA-A receptor in rat cortical or hippocampal membranes using [3H]flunitrazepam
Mus musculus [2] = assay: Tested for inhibition of maximal electroshock -induced seizures in mice; Value is 1/8 of the LD50 range; format: functional
Mus musculus [3] = assay: Tested for inhibition of pentylenetetrazole induced seizures in mice; Value is 1/16 of the LD50 range; format: functional
[4] = Tested for acute toxicity in mice after intraperitoneal administration; Value ranges from 400-800 mg/kg; format: organism-based; conditions: mouse, in vivo, ip
Glutamate NMDA receptor = assay: Inhibition of [3H]CPP binding to N-methyl-D-aspartate glutamate receptor of rat cortical or hippocampal membranes; format: cell membranes, Membrane
[5] = Tested for acute toxicity in mice after intraperitoneal administration; format: organism-based; conditions: mouse, in vivo, ip
Mus musculus [6] = assay: Tested for inhibition of maximal electroshock -induced seizures in mice; Value is 1/4 of the LD50 range; format: functional
Mus musculus [7] = assay: Tested for inhibition of pentylenetetrazole induced seizures in mice; Value is 1/4 of the LD50 range; format: functional
Gerbillinae [8] = assay: Tested for its effect on Hypoxia induced neuronal damage; format: functional
Gerbillinae [9] = assay: Tested for its effect on hippocampal neuronal damage in gerbils activity; format: functional
Mus musculus [10] = assay: Tested for inhibition of pentylenetetrazole induced seizures in mice; Value is 1/8 of the LD50 range; format: functional
[11] = (§1) Tested for acute toxicity in mice after intraperitoneal administration; Value ranges from 200-400 mg/kg; format: organism-based; conditions: mouse, in vivo, ip
Mus musculus [12] = organism: Mus musculus; assay: Tested for inhibition of quinoline-induced seizures in mice.; format: functional
[13] = Tested for acute toxicity in mice after intraperitoneal administration; Value ranges from 400-800; format: organism-based; conditions: mouse, in vivo, ip
[14] = Tested for acute toxicity in mice after intraperitoneal administration; Value ranges from 100-200 mg/kg; format: organism-based; conditions: mouse, in vivo, ip
Mus musculus [15] = assay: Tested for inhibition of maximal electroshock -induced seizures in mice; Value is 1/16 of the LD50; format: functional
Mus musculus [16] = assay: Tested for inhibition of pentylenetetrazole induced seizures in mice; Value is 1/16 of the LD50; format: functional
Mus musculus [17] = organism: Mus musculus; assay: Tested for inhibition of pentylenetetrazole induced seizures in mice.; format: functional
Mus musculus [18] = organism: Mus musculus; assay: Tested for inhibition of strychnine-induced seizures in mice.; format: functional
Mus musculus [19] = organism: Mus musculus; assay: Tested for inhibition of 3-mercaptopropanoic acid induced seizures in mice.; format: functional
Mus musculus [20] = organism: Mus musculus; assay: Tested for inhibition of maximal electroshock -induced seizures in mice.; format: functional
Mus musculus [21] = organism: Mus musculus; assay: Tested for inhibition of bicuculline induced seizures in mice.; format: functional
Mus musculus [22] = assay: Tested for inhibition of quinoline-induced seizures in mice; g = maximum effect, 50% at 20 mg/kg; format: functional, organism-based; set-up: dose 20 mg/kg
Mus musculus [23] = assay: Tested for inhibition of pentylenetetrazole induced seizures in mice; Value is 1/8 of the LD50; format: functional
Mus musculus [24] = organism: Mus musculus; assay: Tested for inhibition of maximal electroshock -induced seizures in mice; Value ranges from 13-25; format: functional
Mus musculus [25] = assay: as §1; format: functional; conditions: ip
Mus musculus [26] = organism: Mus musculus; assay: Tested for inhibition of pentylenetetrazole induced seizures in mice; Value ranges from 100-200; format: functional

## CCn1c(-c2cccc(C(F)(F)F)c2)nn(C)c1=O
[1]
  IC50: > 100 µM
Mus musculus [2]
  Activity: 100 mg/kg
Mus musculus [3]
  Activity: 50 mg/kg
[4]
  LD50: 800 mg/kg
Glutamate NMDA receptor
  IC50: > 100 µM

## Cn1nc(-c2cccs2)n(C)c1=O
[4]
  LD50: 800 mg/kg

## Cn1c(O)nnc1-c1ccncc1
[1]
  IC50: > 100 µM
[5]
  LD50: > 800 mg/kg
Glutamate NMDA receptor
  IC50: > 100 µM

## CCCn1nc(-c2ccc(Cl)cc2)n(CC)c1=O
[4]
  LD50: 800 mg/kg

## Cn1nc(-c2ccc(F)cc2)n(C)c1=O
Mus musculus [6]
  Activity: 200 mg/kg
Mus musculus [7]
  Activity: 200 mg/kg
[4]
  LD50: 800 mg/kg

## Cl.c1ccc(C2(N3CCCCC3)CCCCC2)cc1 [PHENCYCLIDINE HYDROCHLORIDE]
Gerbillinae [8]
  Damage score: <1.14
Gerbillinae [9]
  Damage score: 1.06

## CCn1c(-c2ccccc2)nn(C)c1=O
Mus musculus [2]
  Activity: 100 mg/kg
Mus musculus [7]
  Activity: 200 mg/kg
[4]
  LD50: 800 mg/kg

## CCn1c(O)nnc1-c1cccc(C(F)(F)F)c1
Mus musculus [10]
  Activity: 50 mg/kg
[11]
  LD50: 400 mg/kg

## Cn1c(O)nnc1-c1ccccc1Cl
[1]
  IC50: > 100 µM
Gerbillinae [8]
  Damage score: 2.95
Gerbillinae [9]
  Damage score: 0.22
Mus musculus [2]
  Activity: 100 mg/kg
Mus musculus [3]
  Activity: 50 mg/kg
Mus musculus [12]
  ED50: ~65 mg/kg
[13]
  LD50: 800 mg/kg
Glutamate NMDA receptor
  IC50: > 100 µM

## Cn1c(O)nnc1-c1ccc(Cl)c(Cl)c1
[1]
  IC50: > 100 µM
Mus musculus [6]
  Activity: 100 mg/kg
Mus musculus [7]
  Activity: 100 mg/kg
[11]
  LD50: 400 mg/kg
Glutamate NMDA receptor
  IC50: > 100 µM

## Cn1nc(-c2ccccc2)nc1O
Mus musculus [10]
  Activity: 100 mg/kg
[13]
  LD50: 800 mg/kg

## Cc1ccc(-c2nn(C)c(=O)n2C)cc1
[4]
  LD50: 800 mg/kg

## CCCCOc1cc(-c2nnc(O)n2C)ccc1OC
[14]
  LD50: 200 mg/kg

## Cn1c(O)nnc1-c1ccccc1F
Mus musculus [3]
  Activity: >50 mg/kg
[5]
  LD50: > 800 mg/kg

## Cn1c(O)nnc1-c1ccc(Cl)cc1
[1]
  IC50: > 100 µM
Mus musculus [15]
  Activity: >50 mg/kg
Mus musculus [16]
  Activity: >50 mg/kg
[5]
  LD50: > 800 mg/kg
Glutamate NMDA receptor
  IC50: > 100 µM

## CCC1(c2ccccc2)C(=O)NC(=O)NC1=O [PHENOBARBITAL]
Mus musculus [17]
  ED50: 24 mg/kg
Mus musculus [12]
  ED50: 52 mg/kg
Mus musculus [18]
  ED50: 52 mg/kg
Mus musculus [19]
  ED50: 30 mg/kg
Mus musculus [20]
  ED50: 20 mg/kg
Mus musculus [21]
  ED50: 9 mg/kg

## O=C1NC(=O)C(c2ccccc2)(c2ccccc2)N1 [PHENYTOIN]
Mus musculus [17]
  ED50: > 32 mg/kg
Mus musculus [22]
  ED50: Active
Mus musculus [18]
  ED50: > 200 mg/kg
Mus musculus [19]
  ED50: 89 mg/kg
Mus musculus [20]
  ED50: 26 mg/kg
Mus musculus [21]
  ED50: > 200 mg/kg

## Cn1c(O)nnc1-c1cccs1
[1]
  IC50: > 100 µM
[11]
  LD50: 400 mg/kg
Glutamate NMDA receptor
  IC50: > 100 µM

## CCn1nc(-c2ccccc2)n(C)c1=O
Mus musculus [10]
  Activity: 100 mg/kg
[4]
  LD50: 800 mg/kg

## Cn1nc(-c2ccccc2)n(C)c1=S
[14]
  LD50: 200 mg/kg

## COc1nnc(-c2ccccc2)n1C
[5]
  LD50: > 800 mg/kg

## COc1ccc(-c2nnc(O)n2C)cc1
[5]
  LD50: > 800 mg/kg

## CCn1c(O)nnc1-c1ccccc1
Mus musculus [23]
  Activity: >100 mg/kg
[5]
  LD50: > 800 mg/kg

## CCn1nc(-c2ccc(Cl)cc2)n(C)c1=O
Mus musculus [3]
  Activity: 50 mg/kg
[4]
  LD50: 800 mg/kg

## NC(=O)N1c2ccccc2C=Cc2ccccc21 [CARBAMAZEPINE]
Mus musculus [17]
  ED50: > 200 mg/kg
Mus musculus [24]
  ED50: 25 mg/kg
Mus musculus [12]
  ED50: 25 mg/kg
Mus musculus [18]
  ED50: 61 mg/kg
Mus musculus [19]
  ED50: 86 mg/kg

## CCn1c(O)nnc1-c1ccc(Cl)cc1
[1]
  IC50: > 100 µM
Gerbillinae [8]
  Damage score: 2.64
Gerbillinae [9]
  Damage score: 0.33
Mus musculus [3]
  Activity: 25 mg/kg
Mus musculus [12]
  ED50: ~51 mg/kg
Mus musculus [25]
  LD50: 400 mg/kg
Glutamate NMDA receptor
  IC50: > 100 µM

## CCn1nc(-c2ccc(Cl)cc2)n(CC)c1=O
Mus musculus [2]
  Activity: 50 mg/kg
Mus musculus [10]
  Activity: 50 mg/kg
[11]
  LD50: 400 mg/kg

## CCCCOc1cc(-c2nn(C)c(=O)n2C)ccc1OC
[1]
  IC50: 33.2 µM
Mus musculus [10]
  Activity: 100 mg/kg
[4]
  LD50: 800 mg/kg
Glutamate NMDA receptor
  IC50: > 100 µM

## CCn1nc(-c2cccs2)n(C)c1=O
[4]
  LD50: 800 mg/kg

## COc1ccc(-c2nn(C)c(=O)n2C)cc1
[4]
  LD50: 800 mg/kg

## Cn1nc(-c2ccc(Cl)c(Cl)c2)n(C)c1=O
Mus musculus [17]
  Activity: 50 mg/kg
[14]
  LD50: 200 mg/kg
Mus musculus [20]
  Activity: 50 mg/kg

## Cn1c(O)nnc1-c1ccccc1
[1]
  IC50: > 100 µM
Mus musculus [2]
  Activity: >100 mg/kg
Mus musculus [3]
  Activity: >50 mg/kg
[5]
  LD50: > 800 mg/kg
Glutamate NMDA receptor
  IC50: > 100 µM

## Cn1nc(-c2ccc(Cl)cc2)n(C)c1=O
[1]
  IC50: > 100 µM
Mus musculus [2]
  Activity: 100 mg/kg
Mus musculus [3]
  Activity: 50 mg/kg
[4]
  LD50: 800 mg/kg
Glutamate NMDA receptor
  IC50: > 100 µM

## Cn1c(O)nnc1-c1ccc(F)cc1
[1]
  IC50: > 100 µM
Mus musculus [15]
  Activity: >50 mg/kg
Mus musculus [16]
  Activity: >50 mg/kg
[5]
  LD50: > 800 mg/kg
Glutamate NMDA receptor
  IC50: > 100 µM

## O=C1CN=C(c2ccccc2Cl)c2cc([N+](=O)[O-])ccc2N1 [CLONAZEPAM]
Mus musculus [17]
  ED50: 0.06 mg/kg
Mus musculus [12]
  ED50: < 8 mg/kg
Mus musculus [18]
  ED50: 2 mg/kg
Mus musculus [19]
  ED50: 0.2 mg/kg
Mus musculus [20]
  ED50: 50 mg/kg
Mus musculus [21]
  ED50: 0.07 mg/kg

## Cc1ccc(-c2nnc(O)n2C)cc1
Mus musculus [23]
  Activity: >100 mg/kg
[5]
  LD50: > 800 mg/kg

## Cn1nc(-c2ccccc2)n(C)c1=O
Mus musculus [10]
  Activity: 100 mg/kg
[4]
  LD50: 800 mg/kg

## Oc1n[nH]c(-c2ccccc2)n1
[5]
  LD50: > 800 mg/kg

## CN[C@H](CC(=O)O)C(=O)O [N-METHYL-D-ASPARTIC ACID (NMDA)]
Glutamate NMDA receptor
  IC50: 6 µM

## CCCC(CCC)C(=O)O [VALPROIC ACID]
Mus musculus [26]
  ED50: 200 mg/kg
Mus musculus [12]
  ED50: > 256 mg/kg
Mus musculus [18]
  ED50: > 200 mg/kg
Mus musculus [20]
  ED50: > 200 mg/kg
Mus musculus [21]
  ED50: 28 mg/kg

## Cn1nc(-c2ccccc2Cl)n(C)c1=O
Mus musculus [6]
  Activity: 200 mg/kg
Mus musculus [10]
  Activity: 50 mg/kg
[4]
  LD50: 800 mg/kg

## Cn1nc(-c2ccccc2F)n(C)c1=O
Mus musculus [10]
  Activity: 100 mg/kg
[4]
  LD50: 800 mg/kg

## CCn1c(-c2ccc(Cl)cc2)nn(C)c1=O
[1]
  IC50: > 100 µM
Gerbillinae [8]
  Damage score: 0.97
Gerbillinae [9]
  Damage score: 0.33
Mus musculus [2]
  Activity: 50 mg/kg
Mus musculus [17]
  ED50: 17 mg/kg
Mus musculus [3]
  Activity: 20 mg/kg
Mus musculus [12]
  ED50: 26 mg/kg
Mus musculus [18]
  ED50: ~101 mg/kg
[11]
  LD50: 400 mg/kg
Glutamate NMDA receptor
  IC50: > 100 µM
Mus musculus [19]
  ED50: 31 mg/kg
Mus musculus [20]
  ED50: 48 mg/kg
Mus musculus [21]
  ED50: 15 mg/kg
